Experimental data published in patent US11332461B2, “2-(1H-pyrazol-3-yl) phenol compound and use thereof” (BEIJING JIALIN PHARMACEUTICAL INC., priority 2017, dated 2022).

Assays:
BRM protein = BRM protein (Homo sapiens, UniProt P51531); test: Ki of compounds (Table 1; no method described); assay type: binding
[1] = tested on: H1299 cells (BRG1−/BRM+ cell line); test: Cell viability test, tetrazolium salt (MTT) method; assay type: cell-based; conditions: Homo sapiens, NCI-H1299, cultured 3-4 days with compound, OD 490 nm
Excerpt: A tetrazolium salt (MTT) method is used for determining the pharmacodynamics activity of the compounds of the present invention by using H1299 cells as the cell line, wherein the cell line has deletion of the BRG1 gene (BRG1−), and has no deletion of the BRM gene (BRM+). That is, the cells of the cell line cannot express a BRG1 protein, but can normally express a BRM protein. Small molecules that could prevent the BRM protein from interacting with the chromosomes in the cells, could prevent the BRM protein from exerting functions in the cells. According to the law of synergistic lethality, in a BRG1-gene-deleted cell, if the function of the BRM protein is blocked, cell death will be caused, thereby achieving the function that the small molecules kill cancer cells.
The specific steps of the test are as follows: • (1) different experimental cell lines are subcultured into a 96-well plate, and to prevent a marginal effect, the peripheries of the 96-well plate are added with 100 μL of PBS as a blank, wherein the cell line as used is H1299 cells (BRG1−/BRM+cell line); • (2) when the cells are in adherent growth to be 40-50%, different concentrations of drug molecules and DMSO as controls are added, the cells treated with the small molecules continue to be cultured for 3-4 days, and the medium is replaced by a medium supplemented with small molecules during the culture; • (3) after the 96-well plate treated with DMSO in the control group is full of the cells, each well is added with 20 μL of a MTT mother liquor (5 mg/mL); • (4) the cell plate is placed back into a […] incubator of 37° C. and continue to be incubated for 4 hours; • (5) the MTT solution is pipetted off, and each well is added with 150 μL DMSO; • (6) the 96-well plate is placed in a shaker at room temperature with protection from light for 15 min, until purple crystals are completely dissolved. • (7) The absorbance (OD) of each well is determined by a SpectraMax M5 multi-well plate reader (Molecular Devices, USA) at a wavelength of 490 nm.
According to a conventional detection method, the EC50 values of respective compounds (small molecules) are determined, and the results are summarized in Table 1.

Sequence of BRM protein (P51531 whole entry): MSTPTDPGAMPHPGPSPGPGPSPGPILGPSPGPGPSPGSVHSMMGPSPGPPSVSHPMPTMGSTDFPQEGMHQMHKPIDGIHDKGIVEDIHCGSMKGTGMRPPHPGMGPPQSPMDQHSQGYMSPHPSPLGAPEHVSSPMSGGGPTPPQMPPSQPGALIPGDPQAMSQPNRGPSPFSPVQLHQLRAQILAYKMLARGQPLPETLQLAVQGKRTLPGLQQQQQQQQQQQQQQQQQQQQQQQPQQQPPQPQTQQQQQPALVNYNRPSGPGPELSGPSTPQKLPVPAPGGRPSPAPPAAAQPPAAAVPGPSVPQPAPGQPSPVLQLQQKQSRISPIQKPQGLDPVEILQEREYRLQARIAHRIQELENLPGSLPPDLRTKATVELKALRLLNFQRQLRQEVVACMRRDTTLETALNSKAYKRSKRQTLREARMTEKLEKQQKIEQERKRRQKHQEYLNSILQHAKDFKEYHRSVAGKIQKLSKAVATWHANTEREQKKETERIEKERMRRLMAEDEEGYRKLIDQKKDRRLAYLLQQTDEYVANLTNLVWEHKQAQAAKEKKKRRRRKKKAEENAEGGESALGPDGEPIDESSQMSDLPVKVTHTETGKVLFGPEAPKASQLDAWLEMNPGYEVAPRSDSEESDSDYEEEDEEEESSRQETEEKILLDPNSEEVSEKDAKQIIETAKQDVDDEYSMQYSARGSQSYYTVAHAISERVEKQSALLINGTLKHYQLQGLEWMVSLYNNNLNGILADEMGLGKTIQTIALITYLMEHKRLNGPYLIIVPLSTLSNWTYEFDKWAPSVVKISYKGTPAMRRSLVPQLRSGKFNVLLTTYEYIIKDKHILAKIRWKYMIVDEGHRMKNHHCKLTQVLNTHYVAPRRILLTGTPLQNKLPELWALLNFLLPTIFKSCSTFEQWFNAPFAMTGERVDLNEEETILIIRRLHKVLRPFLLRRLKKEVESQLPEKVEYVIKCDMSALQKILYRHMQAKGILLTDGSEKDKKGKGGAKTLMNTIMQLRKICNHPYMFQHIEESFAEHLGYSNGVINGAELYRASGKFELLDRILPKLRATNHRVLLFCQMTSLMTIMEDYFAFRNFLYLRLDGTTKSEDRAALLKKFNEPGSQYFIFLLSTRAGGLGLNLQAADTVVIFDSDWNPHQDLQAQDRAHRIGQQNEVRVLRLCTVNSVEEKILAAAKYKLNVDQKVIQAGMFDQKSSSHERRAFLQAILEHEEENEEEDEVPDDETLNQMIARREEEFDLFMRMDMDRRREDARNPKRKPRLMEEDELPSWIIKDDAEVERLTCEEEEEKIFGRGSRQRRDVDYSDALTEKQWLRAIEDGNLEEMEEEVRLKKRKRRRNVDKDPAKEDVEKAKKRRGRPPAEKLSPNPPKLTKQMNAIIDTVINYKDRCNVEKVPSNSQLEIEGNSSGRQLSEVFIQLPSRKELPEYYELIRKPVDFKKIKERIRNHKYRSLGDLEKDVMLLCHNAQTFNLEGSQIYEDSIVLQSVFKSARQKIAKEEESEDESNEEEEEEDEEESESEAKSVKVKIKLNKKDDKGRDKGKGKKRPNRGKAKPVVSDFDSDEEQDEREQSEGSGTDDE

| Compound | Ki (BRM protein) [µM] | EC50 [1] [µM] |
| --- | --- | --- |
| O=C(Nc1ccc(-c2cc(-c3cc(F)ccc3O)n[nH]2)cc1)c1cccc(F)c1F [BRM2-114] | 3 | 11.4 |
| O=C(NCc1ccc(F)cc1)c1cc(-c2cc(F)ccc2O)n[nH]1 [BRM2-136] | 3 | 18 |
| O=C(Cc1ccc(F)cc1)Nc1cc(-c2cc(F)ccc2O)n[nH]1 [BRM2-168] | 2.5 | 13.4 |
| O=C(Nc1ccc(-c2cc(-c3cc(F)ccc3O)n[nH]2)cc1)c1cccnc1 [BRM2-121] | 0.6 | 2.4 |
| O=C(Nc1ccc(-c2cc(-c3cc(F)ccc3O)n[nH]2)cc1)C12CC3CC(CC(C3)C1)C2 [BRM2-106] | 0.2 | 0.9 |
| CN1CCCN(c2ccc(-c3cc(-c4cc(F)ccc4O)n[nH]3)cc2)CC1 [BRM2-31] | 0.9 | 1.7 |
| CC(C)(C)c1ccc(-c2cc(-c3cc(F)ccc3O)n[nH]2)cc1 [BRM2-8] | 2.2 | 8.5 |
| Nc1c(F)ccc(O)c1-c1cc(-c2ccc(-c3ccc(F)cc3)cc2)[nH]n1 [BRM2-22] | 1.5 | 3.3 |
| CN(Cc1ccccc1)C(=O)c1cc(-c2cc(F)ccc2O)n[nH]1 [BRM2-143] | 2.8 | 17.3 |
| COC(=O)C(CCS(C)(=O)=O)NC(=O)c1cc(-c2cc(F)ccc2O)n[nH]1 (stereo not shown) [BRM2-149] | 1.2 | 8.9 |
| O=C(Cc1ccc(O)cc1)Nc1cc(-c2cc(F)ccc2O)n[nH]1 [BRM2-164] | 6.9 | > 20 |
| COC(=O)C1CCCN1C(=O)c1cc(-c2cc(F)ccc2O)n[nH]1 (stereo not shown) [BRM2-150] | 1.8 | 10.3 |
| Nc1cccc(O)c1-c1cc(-c2ccc(Br)cc2)[nH]n1 [BRM2-6] | 2.3 | 12 |
| CC(C)N(Cc1ccccc1)C(=O)c1cc(-c2cc(F)ccc2O)n[nH]1 [BRM2-145] | 5.3 | > 20 |
| CN1CCN(c2ccccc2-c2cc(-c3cc(F)ccc3O)n[nH]2)CC1 [BRM2-34] | 1.4 | 7.6 |
| Cc1cccc(C)c1-c1ccc(-c2cc(-c3cc(F)ccc3O)n[nH]2)cc1 [BRM2-27] | 2.7 | > 20 |
| NC(=O)CCC(NC(=O)c1cc(-c2cc(F)ccc2O)n[nH]1)C(=O)N1CCOCC1 (stereo not shown) [BRM2-156] | 0.4 | 1.7 |
| Cc1ccccc1-c1cc(-c2cc(F)ccc2O)n[nH]1 [BRM2-11] | 1.6 | > 20 |
| Cc1ccc(C(=O)Nc2ccc(-c3cc(-c4cc(F)ccc4O)n[nH]3)cc2)cn1 [BRM2-111] | 0.8 | 3.8 |
| O=C(Nc1ccc(-c2cc(-c3cc(F)ccc3O)n[nH]2)cc1)c1ccccn1 [BRM2-112] | 0.9 | 6.5 |
| CCN(Cc1ccccc1)C(=O)c1cc(-c2cc(F)ccc2O)n[nH]1 [BRM2-144] | 4.6 | > 20 |

| Compound | Ki (BRM protein) [µM] | EC50 [1] [µM] |
| --- | --- | --- |
| COc1cccc(C(=O)Nc2ccc(-c3cc(-c4cc(F)ccc4O)n[nH]3)cc2)c1OC [BRM2-113] | 2 | > 20 |
| O=C(Nc1ccc(-c2cc(-c3cc(F)ccc3O)n[nH]2)cc1)c1cnccn1 [BRM2-124] | 0.6 | 1.5 |
| O=C(Nc1ccc(-c2cc(-c3cc(F)ccc3O)n[nH]2)cc1)c1ccnc(Cl)c1 [BRM2-123] | 0.7 | 2.8 |
| O=C(NCCc1ccc(Cl)cc1)c1cc(-c2cc(F)ccc2O)n[nH]1 [BRM2-140] | 2 | 14.7 |
| CCc1ccc(-c2cc(-c3cc(F)ccc3O)n[nH]2)cc1 [BRM2-9] | 4.6 | > 20 |
| Nc1c(F)ccc(O)c1-c1cc(-c2ccc(Br)cc2)[nH]n1 [BRM2-4] | 1.8 | 6.7 |
| COC(=O)C(Cc1cnc[nH]1)NC(=O)c1cc(-c2cc(F)ccc2O)n[nH]1 (stereo not shown) [BRM2-152] | 0.5 | 2.5 |
| CN1CCN(c2cccc(-c3cc(-c4cc(F)ccc4O)n[nH]3)c2)CC1 [BRM2-39] | 1.8 | 9.3 |
| O=C(Nc1cc(-c2cc(F)ccc2O)n[nH]1)c1ccc(O)cc1 [BRM2-163] | 4.4 | 17.2 |
| Oc1ccc(F)cc1-c1cc(N2CC3CC2CN3c2ccccn2)[nH]n1 (stereo not shown) [BRM2-41] | 2.7 | 13.5 |
| Oc1ccc(F)cc1-c1cc(-c2ccc(N3CCCCC3)cc2)[nH]n1 [BRM2-33] | 2.7 | 15 |
| O=C(NCCc1ccc(O)cc1)c1cc(-c2cc(F)ccc2O)n[nH]1 [BRM2-137] | 1.1 | > 20 |
| O=C(NCCc1ccc(F)cc1)c1cc(-c2cc(F)ccc2O)n[nH]1 [BRM2-157] | 0.8 | 4.3 |
| O=C(Nc1cc(-c2cc(F)ccc2O)n[nH]1)c1ccccc1 [BRM2-162] | 6.8 | > 20 |
| O=C(NCc1ccc(O)cc1)c1cc(-c2cc(F)ccc2O)n[nH]1 [BRM2-138] | 2 | > 20 |
| Nc1cc(-c2cc(F)ccc2O)n[nH]1 [BRM2-160] | 3.2 | 18.2 |
| O=C(Nc1cc(-c2cc(F)ccc2O)n[nH]1)c1cnccn1 [BRM2-166] | 1.7 | 7.3 |
| CS(=O)(=O)c1ccc(-c2ccc(-c3cc(-c4cc(F)ccc4O)n[nH]3)cc2)cc1 [BRM2-30] | 2 | 10.5 |
| O=C(Nc1ccc(-c2cc(-c3cc(F)ccc3O)n[nH]2)cc1)c1c(F)cccc1F [BRM2-105] | 4.1 | > 20 |
| CN1CCN(c2ccc(-c3cc(-c4cc(F)ccc4O)n[nH]3)cc2)CC1 [BRM2-32] | 3.7 | 5.8 |
